Test results taken from patent publication US12697330B2, “Therapeutic methods using vadadustat” (Akebia Therapeutics, Inc., priority 2021, dated 2026).

Test system: erythropoietin (EPO)
Experiment: Phase 1b study: pharmacodynamics, Baseline-unadjusted serum EPO concentration
Format: in vivo, human
Protocol: PK and EPO Sample. For each vadadustat treatment group, blood samples for vadadustat PK (and its metabolites) and EPO were collected at the following time points: Day 1: predose, and at 1, 2, 3, 4, 5, 8, and 11 hours post dose; Day 2: 24 hours (−2 hours) post Day 1 dose; Day 6: blood sample for EPO analysis only was collected predose on Day 6; Day 8: predose, and at 1, 2, 3, 4, 5, 8, 11 hours post dose, Day 10 or EOT: predose. For the ESA treatment group, blood samples for analysis of EPO were collected at the following time points: Day 1: predose, and at 0.25, 1, 2, 3, 4, 5, 8, and 11 hours post dose; Day 2: 24 hours (−2 hours) post Day 1 dose.
PD Sampling. For all vadadustat and ESA treatment groups, in addition to EPO, blood samples for Hb, reticulocytes and iron indices for PD analyses were collected on Day 1, Day 6 and Day 10. Hepcidin were collected predose on Day 1, Day 6, and Day 10 for PD analysis.
Secondary Endpoints. For each treatment group, PD parameters included, but were not limited to, as deemed appropriate: hepcidin, erythropoietin (EPO), iron indices (iron, ferritin, total iron-binding capacity [TIBC], TSAT), Hb, and reticulocytes.
The summary of serum concentration of Baseline-unadjusted EPO by time for the vadadustat treatment groups in the PK population are presented in FIGS. 1a-11b and FIGS. 12a-12b. The summary of PD parameters for Baseline-unadjusted serum EPO concentration for vadadustat treatment groups by dosing days for the PK population are summarized in Table 2.

SMILES | EPO response (600, 750, 900 mg QD, Day 1 and Day 8) | EPO after administration versus dose (Day 8) | Baseline-Unadjusted serum EPO Tmax, Median (Vada 600 mg QD, Day 1) [h] | Baseline-unadjusted serum EPO AUC0-11, Mean (SD) (Vada 600 mg QD, Day 1) | Baseline-Unadjusted serum EPO Tmax, Median (Vada 600 mg QD, Day 8) [h] | Baseline-unadjusted serum EPO AUC0-11, Mean (SD) (Vada 600 mg QD, Day 8 (AUClast)) | Baseline-Unadjusted serum EPO Tmax, Median (Vada 750 mg QD, Day 1) [h] | Baseline-unadjusted serum EPO AUC0-11, Mean (SD) (Vada 750 mg QD, Day 1) | Baseline-Unadjusted serum EPO Tmax, Median (Vada 750 mg QD, Day 8) [h] | Baseline-unadjusted serum EPO AUC0-11, Mean (SD) (Vada 750 mg QD, Day 8 (AUClast)) | Baseline-Unadjusted serum EPO Tmax, Median (Vada 900 mg QD, Day 1) [h] | Baseline-unadjusted serum EPO AUC0-11, Mean (SD) (Vada 900 mg QD, Day 1) | Baseline-Unadjusted serum EPO Tmax, Median (Vada 900 mg QD, Day 8) [h] | Baseline-unadjusted serum EPO AUC0-11, Mean (SD) (Vada 900 mg QD, Day 8 (AUClast))
O=C(O)CNC(=O)c1ncc(-c2cccc(Cl)c2)cc1O [vadadustat, {[5-(3-chlorophenyl)-3-hydroxypyridine-2-carbonyl]amino}acetic acid] | variable EPO response | dose-dependent increase of EPO |  |  |  |  |  |  |  |  |  |  |  | 
O=C(O)CNC(=O)c1ncc(-c2cccc(Cl)c2)cc1O [Compound 1, {[5-(3-chlorophenyl)-3-hydroxypyridine-2-carbonyl]amino}acetic acid] |  |  | 10.09 | 319 (150) h · mU/mL | 4.50 | 410 (286) h · mU/mL | 10.94 | 569 (623) h · mU/mL | 5.01 | 677 (533) h · mU/mL | 10.00 | 455 (438) h · mU/mL | 10.00 | 981 (1854) h · mU/mL
